Assay results published in PubChem BioAssay AID2060350 (Molecular Pharmacology Branch, DTP, NCI, 2025).

Test system: PDC 521955-158-R6-J3 spheroids, viability
Assay: Anticancer human tumor 521955-158-R6-J3-PDC patient-derived pancreatic carcinoma cell line growth inhibition [TAK]
Settings: spheroids with HUVEC and MSC; for IC50: curve of first compound; for viability, T/C: stronger effect = lower value
In short: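 Tumor cells were grown as spheroids with HUVEC and hMSC (60:25:15) and treated with targeted agents combined with TAK-243 or ipatasertib. Drugs were tested in half-log steps down from near the clinical Cmax, or from 10 microM where Cmax was unknown.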

[1] = second compound 0.3 µM, first compound 0.0316 µM
[2] = second compound 0.3 µM, first compound 0.1 µM
[3] = second compound 0.3 µM, first compound 0.316 µM
[4] = second compound 0.3 µM, first compound 1 µM
[5] = second compound 0.949 µM, first compound 0.0316 µM
[6] = second compound 0.949 µM, first compound 0.1 µM
[7] = second compound 0.949 µM, first compound 0.316 µM
[8] = second compound 0.949 µM, first compound 1 µM
[9] = second compound 3 µM, first compound 0.0316 µM
[10] = second compound 3 µM, first compound 0.1 µM
[11] = second compound 3 µM, first compound 0.316 µM
[12] = second compound 3 µM, first compound 1 µM
[13] = second compound 9.49 µM, first compound 0.0316 µM
[14] = second compound 9.49 µM, first compound 0.1 µM
[15] = second compound 9.49 µM, first compound 0.316 µM
[16] = second compound 9.49 µM, first compound 1 µM
[17] = second compound 30 µM, first compound 0.0316 µM
[18] = second compound 30 µM, first compound 0.1 µM
[19] = second compound 30 µM, first compound 0.316 µM
[20] = second compound 30 µM, first compound 1 µM
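Also: spheroids exposed to drugs for 7 days before readout.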
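For viability, T/C in this document: 100% = DMSO vehicle control viability.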

| SMILES | IC50 (second compound 0.3 µM) [nM] | IC50 (second compound 0.949 µM) [nM] | IC50 (second compound 3 µM) [nM] | IC50 (second compound 9.49 µM) [nM] | IC50 (second compound 30 µM) [nM] | viability, T/C [1] [%] | viability, T/C [2] [%] | viability, T/C [3] [%] | viability, T/C [4] [%] | viability, T/C [5] [%] | viability, T/C [6] [%] | viability, T/C [7] [%] | viability, T/C [8] [%] | viability, T/C [9] [%] | viability, T/C [10] [%] | viability, T/C [11] [%] | viability, T/C [12] [%] | viability, T/C [13] [%] | viability, T/C [14] [%] | viability, T/C [15] [%] | also measured |
| --- | --- | --- | --- | --- | --- | --- | --- | --- | --- | --- | --- | --- | --- | --- | --- | --- | --- | --- | --- | --- | --- |
| COc1c(OCCCN2CCOCC2)ccc2c3n(c(=NC(=O)c4cnc(N)nc4)nc12)CCN3 + CC(C)NCC(C(=O)N1CCN(c2ncnc3c2C(C)CC3O)CC1)c1ccc(Cl)cc1 | 38.4 | 7.43 | < 3.16 | < 3.16 | < 3.16 | 51.2 | 41 | 27 | 21.6 | 44.9 | 37.4 | 25.9 | 20.2 | 37.8 | 32.9 | 25.7 | 19.5 | 35.8 | 29.9 | 22.8 | viability, T/C (second compound 0.3 µM, first compound 0.00316 µM): 70.9%; viability, T/C (second compound 0.3 µM, first compound 0.01 µM): 63.6%; viability, T/C (second compound 0.949 µM, first compound 0.00316 µM): 52.4%; viability, T/C (second compound 0.949 µM, first compound 0.01 µM): 48.2%; viability, T/C (second compound 3 µM, first compound 0.00316 µM): 46.8%; viability, T/C (second compound 3 µM, first compound 0.01 µM): 43.5%; viability, T/C (second compound 9.49 µM, first compound 0.00316 µM): 43.3%; viability, T/C (second compound 9.49 µM, first compound 0.01 µM): 37.5%; viability, T/C [16]: 19.8%; viability, T/C (second compound 30 µM, first compound 0.00316 µM): 41.1%; viability, T/C (second compound 30 µM, first compound 0.01 µM): 34.5%; viability, T/C [17]: 37%; viability, T/C [18]: 24.6%; viability, T/C [19]: 18%; viability, T/C [20]: 15.4% |
| Cc1nc(NC(=O)N2CCCC2C(N)=O)sc1-c1ccnc(C(C)(C)C(F)(F)F)c1 (stereo not given) + CC(C)NCC(C(=O)N1CCN(c2ncnc3c2C(C)CC3O)CC1)c1ccc(Cl)cc1 | > 10000 | 4490 | 2820 | 509 | 481 | 70.5 | 77 | 72.7 | 63.1 | 63.4 | 64 | 57.3 | 55.3 | 57.2 | 62.7 | 58.8 | 51.5 | 63 | 58.4 | 48.2 | viability, T/C (second compound 0.3 µM, first compound 3.16 µM): 66.4%; viability, T/C (second compound 0.3 µM, first compound 10 µM): 55.6%; viability, T/C (second compound 0.949 µM, first compound 3.16 µM): 54.3%; viability, T/C (second compound 0.949 µM, first compound 10 µM): 44.9%; viability, T/C (second compound 3 µM, first compound 3.16 µM): 51.2%; viability, T/C (second compound 3 µM, first compound 10 µM): 38.9%; viability, T/C [16]: 47.2%; viability, T/C (second compound 9.49 µM, first compound 3.16 µM): 46.9%; viability, T/C (second compound 9.49 µM, first compound 10 µM): 35.1%; viability, T/C [17]: 60%; viability, T/C [18]: 49.2%; viability, T/C [19]: 54.5%; viability, T/C [20]: 46.8%; viability, T/C (second compound 30 µM, first compound 3.16 µM): 38.9%; viability, T/C (second compound 30 µM, first compound 10 µM): 26.2% |
